The values that follow come from article PMC10828251, “A novel PSMA-targeting tracer with highly negatively charged linker demonstrates decreased salivary gland uptake in mice compared to [^68Ga]Ga-PSMA-11” (EJNMMI Radiopharmacy and Chemistry, 2024).

Series [1] in a line: assessment of stability (radiolysis) by radio-HPLC. The format is physicochemical. Particulars: for degradation on radio-HPLC after Ga-68 labeling without radioprotectant: aqueous sodium acetate buffer. The protocol: The compound in Figure 7 was not further developed as a potential theranostic agent since the need for a radioprotectant with Ga-68 labeling indicated potentially significant instability with high dose beta and alpha emitters.
Figure 8. Radio-HPLC trace of the compound in Figure 7 seventy minutes after labeling with Ga-68. The labeling reaction consisted of 2 μL of the compound (0.5mg/mL), 40 μL of NaOAc Buffer B, 5 μL ascorbic acid (100mg/mL) and 0.2mL of Eckert & Ziegler GalliaPharm Generator eluate. Buffer B composition is stated above. The HPLC gradient used was 5%-95%B in 15 minutes where solvent B is acetonitrile and solvent A is water with 0.1% formic acid. Column: Phenomenex Synergi Hydro-RP 80A 150x4.6mm 4 micrometer column (Phenomenex, Torrance, CA).
Figure 10. Radio-HPLC trace of [^68Ga]Ga-JB-1498 immediately after radiolabeling. The small signal at the solvent front is a very small amount of [^68Ga]GaCl3. The labeling reaction contained 2 μL of JB1498 (0.5mg/mL), 40 μL of NaOAc Buffer B and 0.2mL of Eckert & Ziegler GalliaPharm Generator eluate. Buffer B composition is stated above. The HPLC gradient used was 5%-95%B in 15 minutes where solvent B is acetonitrile and solvent A is water with 0.1% formic acid. Column: Waters (Milford, MA) Symmetry C18, 5μm, 4.6 x 150 mm column.

The subject of series [2] is PC3-PIP PSMA-expressing cell line. Description: initial biodistribution study, low molar activity, PC3-PIP tumor-bearing NSG mice. Particulars: 1 hour after injection, specific activity below 7.4 GBq/μmol; for Biodistribution, Tumor: PC3-PIP PSMA+ tumor, NSG mice. The format is in vivo. The procedure:
Radiolabeling of JB-1498 for the initial biodistribution study was performed using [^68Ga]GaCl3 from a spent ^68Ge/^68Ga generator from Isotopen Technologies Garching (Garching, Germany, currently ITM). JB-1498 with [^68Ga]GaCl3 was heated in aqueous sodium acetate buffer at pH 4–5 and 97 C for 7 min. The reaction product was HPLC-purified for the biodistribution study as detailed in the Additional file 1. The molar activity of the purified product was less than 7.4 GBq/μmol (200 Ci/mmol) at the conclusion of synthesis.
For the initial biodistribution study in tumor bearing mice, 3 male 10 week-old NSG mice (NOD.Cg-Prkdc^scidIl2rg^tm1Wjl/SzJ) were inoculated subcutaneously with 4 million cells of PC3-PIP PSMA-expressing cell line. Mice were housed in a specific pathogen free, temperature- and humidity-controlled environment, in standard micro-isolator top cages with ad libitum access to chow. Biodistribution studies were conducted when the long axis of the tumor exceeded 1 cm. Each mouse was injected with 100 μL of the [^68Ga]Ga-JB-1498 solution under isoflurane anesthesia via retro-orbital injection in the right eye and euthanized 1 h after injection. Major organs (including the left salivary glands) were dissected for radioactivity quantification. The dose injected was 0.74 ± 0.27 MBq.

Series [3] can be described thus: high molar activity biodistribution study in non-tumor-bearing NSG mice. Particulars: 1 hour after injection, high specific activity 59 GBq/μmol. The format is in vivo. The protocol:
For the high molar activity biodistribution and imaging study, a fresh 1.85 GBq (50mCi) GalliaPharm Gallium-68 generator from Eckert & Ziegler (Berlin, Germany) was used. Radiolabeling of JB-1498 with [^68Ga]GaCl3 was performed in aqueous sodium acetate buffer at pH 4–5 and 98 °C for 10 min. The reaction product was diluted with water, loaded onto an Oasis HLB cartridge, washed with water, and eluted with 2:1 PBS:EtOH as detailed in the Additional file 1. The fractions with highest radioactivity were diluted with saline for injection in mice. Please refer to Additional file 1: Figs. 4 and Fig. 5 for HPLC traces of the products prior to and after solid phase extraction. The molar activity of the purified product was estimated to be 59 GBq/μmol (1600 Ci/mmol) at the time of first injection. [^68Ga]Ga-PSMA-11 was produced concurrently by incubating [^68Ga]GaCl3 and PSMA-11 precursor in sodium acetate buffer at pH 4–5 at room temperature for 10 min. Please refer to Additional file 1: Fig. 6 for HPLC trace of the product. The molar activity of the product was estimated to be 48 GBq/μmol (1300 Ci/mmol) at the time of first injection.
For the high molar activity biodistribution study aimed at maximizing salivary gland uptake, 3 male NSG mice without tumor were injected with 100μL of the [^68Ga]Ga-JB-1498 solution under anesthesia via retro-orbital injection per the above-described protocol. The dose injected was 1.31 ± 0.26 MBq.

Series [4] is described as follows: micro-PET imaging in non-tumor-bearing NSG mice. Format: in vivo. Particulars: for course of activity in salivary glands and kidneys, dynamic micro-PET: during the first hour. The procedure: For the micro-PET imaging study, high molar activity [^68Ga]Ga-JB-1498 and [^68Ga]Ga-PSMA-11 were administered to non-tumor bearing NSG mice via tail vein injection. The dose injected was 5.3MBq of [^68Ga]Ga-PSMA-11 and 4.4 MBq of [^68Ga]Ga-JB-1498. Imaging was performed on a nanoScan PET/CT instrument (Mediso USA, Arlington, Virginia). List mode PET acquisition was performed for 45 min starting 25 min post-injection. CT was performed for PET attenuation correction and anatomic localization.

The next series concerns LNCaP cell line. The arrangement: method as in Rousseau et al. [2018]. Particulars: NSG mice, one hour after injection, ref Rousseau et al. [2018], cited from earlier work.
Series [5] has as its system PSMA-expressing metastatic prostate cancer. Further details: method as in Sartor et al. [2021]. Particulars: 7.4 GBq (200 mCi) regimen; ref Sartor et al. [2021]; cited from earlier work.
The mark [6] stands for this setting: N=3, listed as [^68Ga]Ga-JB1498.
Setting [7] is: LNCaP tumor model, listed as [^68Ga]Ga-PSMA 11.

Values joined by “and” are separate entries in the source; they are usually repeats but may differ in a detail not shown here. Equal entries are not always repeated. Where two headings read alike, the source gives them in different places. Numbered stars: 1 amine (or outer) side, 2 acyl side, 3 side chain; on linkers, the order of the positions; unused ones are H or OH. Peptide text beside a SMILES is read from it. * marks the point of attachment. X1 = O=C(O)CN1CCN(CC(=O)O)CC(Cc2ccc(NC(=S)*)cc2)N(CC(=O)O)CC1; DOTA = O=C(O)CN1CCN(CC(=O)O)CCN(CC(=O)*)CCN(CC(=O)O)CC1; γGlu = O=C(O)[CH](CCC(=O)[*:2])N[*:1]; CO = O=C([*:1])[*:2]; Ahx = NCCCCCC(=O)O

With `NC(=O)C(CCCCNC(=S)Nc1ccc(CC2CN(CC(=O)O)CCN(CC(=O)O)CCN2CC(=O)O)cc1)NC(=O)C(Cc1ccc(O)cc1)NC(=O)C(CCC(=O)O)NC(=O)C(CCC(=O)O)NC(=O)C(CCC(=O)O)NC(=O)CCCCCNC(=O)CCC(NC(=O)NC(CCC(=O)O)C(=O)O)C(=O)O` (stereo not shown) (68Ga complex, metal not drawn) [compound in Figure 7] ({Glu-CO-γGlu-Ahx}-EEEYK(X1)-NH2; configuration not given here), the “stability on radio-HPLC after Ga-68 labeling with radioprotectant” value in series [1] (aqueous sodium acetate buffer with ascorbic acid) is on record as “reasonable stability with minimal degradation”. Besides, in series [1] (no radioprotectant), the “degradation on radio-HPLC after Ga-68 labeling without radioprotectant” value is recorded as “multiple peaks in radio-HPLC”. Also, the “radiolysis on radio-HPLC two hours after radiolabeling” value in series [1] (in the presence of ascorbic acid) is recorded as “some radiolysis”.

Regarding `NC(=O)C(CCCCNC(=O)CN1CCN(CC(=O)O)CCN(CC(=O)O)CCN(CC(=O)O)CC1)NC(=O)C(Cc1ccc(O)cc1)NC(=O)C(CCC(=O)O)NC(=O)C(CCC(=O)O)NC(=O)C(CCC(=O)O)NC(=O)CCCCCNC(=O)CCC(NC(=O)NC(CCC(=O)O)C(=O)O)C(=O)O.[68Ga]` (stereo not shown) [[^68Ga]Ga-JB-1498] ({Glu-CO-γGlu-Ahx}-EEEYK(DOTA)-NH2; configuration not given here), in series [2], the “Biodistribution, Tumor” value was 12.09%ID/gram of tissue and 10.49%ID/gram of tissue. For the same compound, the “Biodistribution, Tumor” value in series [2] (listed as [^68Ga]Ga-JB1498) is on record as 12.09 ± 1.28 %ID/gram of tissue. For the same compound, in series [2] (PSMA+ tumor-bearing NSG mice), the “Biodistribution, Blood” value is reported as 0.22%ID/gram of tissue; the “Biodistribution, Bone” value is 0.11%ID/gram of tissue and 0.10%ID/gram of tissue; the “Biodistribution, Heart” value was 0.12%ID/gram of tissue and 0.11%ID/gram of tissue; the “Biodistribution, Liver” value was 0.20%ID/gram of tissue and 0.18%ID/gram of tissue. In addition, in series [2] (PSMA+ tumor-bearing NSG mice), the “Biodistribution, Lung” value is 0.24%ID/gram of tissue and 0.21%ID/gram of tissue; the “Biodistribution, Muscle” value is 0.22%ID/gram of tissue and 0.19%ID/gram of tissue; the “Biodistribution, Salivary gland” value is 0.13 ± 0.01 %ID/gram of tissue and 0.13%ID/gram of tissue and 0.11%ID/gram of tissue. Besides, in series [2] (PSMA+ tumor-bearing NSG mice, 2 splenic samples), the “Biodistribution, Spleen” value is 0.31%ID/gram of tissue and 0.27%ID/gram of tissue. For the same compound, the “Biodistribution, Liver” value in series [2] (PSMA+ tumor-bearing NSG mice, listed as [^68Ga]Ga-JB1498) is recorded as 0.20 ± 0.09 %ID/gram of tissue. For the same compound, the “Biodistribution, Kidney” value in series [2] (PSMA+ tumor-bearing NSG mice, single sample of left kidney) is recorded as 12.98%ID/gram of tissue. In series [3] (N=3), the “Biodistribution, Blood” value is 0.39%ID/gram of tissue; the “Biodistribution, Combined Salivary gland” value is on record as 0.39%ID/gram of tissue; the “Biodistribution, Kidney” value was 10.12%ID/gram of tissue; the “Biodistribution, Liver” value is 0.68%ID/gram of tissue. In addition, in series [3] (N=3), the “Biodistribution, Lung” value is 0.66%ID/gram of tissue; the “Biodistribution, Spleen” value is listed as 2.34%ID/gram of tissue; the “Biodistribution, parotid (Left)” value is listed as 0.36%ID/gram of tissue; the “Biodistribution, submandibular (Left)” value is on record as 0.42%ID/gram of tissue. For the same compound, in series [3] (setting [6]), the “Biodistribution, Combined Salivary gland” value is recorded as 0.39 ± 0.24 %ID/gram of tissue and the “Biodistribution, Kidney” value is on record as 10.12 ± 1.73 %ID/gram of tissue. The “salivary gland (SG) and background activity on micro-PET compared to [68Ga]Ga-PSMA-11” value in series [4] (1 h post injection, same SUV grayscale) is listed as “very little”. For the same compound, in series [4] (1 h post injection, most of injected tracer in the urinary bladder), the “tracer excretion on micro-PET” value was “rapid tracer excretion via the kidneys”. In addition, the “salivary gland and kidney uptake on micro-PET images compared to [68Ga]Ga-PSMA-11” value in series [4] (1 h post-injection, tail vein, non-tumor bearing NSG mice) was “much lower”. Further, the “course of activity in salivary glands and kidneys, dynamic micro-PET” value in series [4] is listed as “gradually decreasing”. Moreover, the “degradation on radio-HPLC after Ga-68 labeling without radioprotectant” value in series [1] (no radioprotectant) was “no significant degradation”. Also, the “radiolysis on radio-HPLC 2.5 hours after synthesis” value in series [1] (no radioprotectant, compared to trace immediately after radiolabeling) was “no significant radiolysis”.

For `O=C([O-])CN(CCN(CC(=O)[O-])Cc1cc(CCC(=O)NCCCCCC(=O)NCCCC[C@H](NC(=O)N[C@@H](CCC(=O)O)C(=O)O)C(=O)O)ccc1[O-])Cc1cc(CCC(=O)O)ccc1[O-].[68Ga+3].[OH3+]` [[^68Ga]Ga-PSMA-11], in series [4], the “course of activity in salivary glands and kidneys, dynamic micro-PET” value is on record as “gradually increasing”. In addition, in the series with LNCaP cell line (LNCaP tumor model), the “Biodistribution, Blood” value is 0.31%ID/gram of tissue; the “Biodistribution, Kidney” value is given as 182.0 ± 33.5 %ID/gram of tissue; the “Biodistribution, Liver” value is reported as 0.44%ID/gram of tissue; the “Biodistribution, Muscle” value is 0.54%ID/gram of tissue. Moreover, in the series with LNCaP cell line (LNCaP tumor model), the “Biodistribution, Salivary gland” value was 10.00 ± 2.52 %ID/gram of tissue and the “Biodistribution, Spleen” value was 22.20%ID/gram of tissue. In the series with LNCaP cell line (setting [7]), the “Biodistribution, Kidney” value is 182.00%ID/gram of tissue and the “Biodistribution, Salivary gland” value is reported as 10.00%ID/gram of tissue. Moreover, the “Biodistribution, Tumor” value with LNCaP cell line (LNCaP tumor) is listed as 8.67%ID/gram of tissue.

[^177Lu]Lu-PSMA-617: in series [5], the complete response is given as 9% and the partial response was 42%.
